# Assay results as given in patent US20250223300A1, “MACROCYCLIC COMPOUND AND PHARMACEUTICAL COMPOSITION AND USE THEREOF” (BETTA PHARMACEUTICALS CO., LTD, priority 2022, published 2025).
# Tests used:
# Pharmacokinetics in mice = assay type: in vivo, mouse; conditions: female BALB/c mice, 5 mg/kg orally by gavage, plasma
# Description: Mouse PK studies were performed using female BALB/c mice (20-30 g). Compounds were prepared and prepared immediately before use. Mice were administered intravenously or orally by gavage. Blood was collected from the mouse orbital venous plexus, and 100 μL of whole blood was transferred to a K2-EDTA tube at each time point.
# 1 mg/kg was given intravenously, and whole blood was collected at 0.083, 0.25, 0.5, 1, 2, 4, 6 and 24 h after administration; 5 mg/kg were given orally by gavage, and whole blood was collected at 0.25, 0.5, 1, 2, 4, 6, 24 h after administration in different batches, or the mice were killed at 2, 4 and 6 h to obtain brains. Whole blood samples were centrifuged and plasma was separated; brain tissue samples were homogenized by adding 4 times the volume of buffer, and the plasma and brain tissue samples were stored in a −80° C. refrigerator for later use. After the above plasma and brain tissue samples were precipitated with acetonitrile for protein, the supernatant was taken and mixed with water in a 1:1 ratio, and 10 μL was taken for LC-MS/MS detection.
# [1] = target: Ba/F3 cells overexpressing EGFR Del19/T790M/C797S (Homo sapiens, UniProt P00533, T790M/C797S, cells depend on it, form not given); experiment: Cell proliferation inhibitory activity assay, Ba/F3 EGFR Del19/T790M/C797S; assay type: cell-based; conditions: cell proliferation inhibition, 72 hours, luminescence; read-out: Ba/F3 cells overexpressing different EGFR mutations IC50 (nM) Del19/T790M/C797S
# Description: (§1) Suspension cells Ba/F3 (EGFR. Dell9/T790M/C797S), Ba/F3 (EGFR L858R/T790M/C797S), Ba/F3 (EGFR Del19/C797S), and Ba/F3 (EGFR L858R/C797S) overexpressing different EGFR mutations were cultured in PRMI 1640 containing 10% FBS and 1% PS, and adherent cells A431 carrying EGFR WT were cultured in DMEM containing 10% FBS and 1% PS. The experimental steps for compound activity detection are as follows: • (1) Take adherent cells in the logarithmic growth phase, digest them with trypsin count them, and then inoculate them into a 96-well plate at a certain density. Incubate them overnight at 37° C. and 5% CO2 to allow them to adhere.
# (§2) Y=minimum+([…])/(1+10^((Log IC50−X)*slope)); • X: logarithm of compound concentration; Y: cell survival inhibition rate.
# [2] = target: Ba/F3 (EGFR L858R/T790M/C797S) (Homo sapiens, UniProt P00533, T790M/C797S/L858R, cells depend on it); experiment: Cell proliferation inhibitory activity assay, Ba/F3 EGFR L858R/T790M/C797S; assay type: cell-based; conditions: cell proliferation inhibition, 72 hours, luminescence; read-out: Ba/F3 cells overexpressing different EGFR mutations IC50 (nM) L858R/T790M/C797S
# Description: as §1, §2
# Ba/F3 (EGFR L858R/C797S) = Ba/F3 (EGFR L858R/C797S) (Homo sapiens, UniProt P00533, C797S/L858R, cells depend on it); experiment: Cell proliferation inhibitory activity assay, Ba/F3 EGFR L858R/C797S; assay type: cell-based; conditions: cell proliferation inhibition, 72 hours, luminescence; read-out: Ba/F3 cells overexpressing different EGFR mutations IC50 (nM) L858R/C797S
# Description: as §1, §2
# [3] = system: A431 cell carrying EGFR WT; experiment: Cell proliferation inhibitory activity assay, A431; assay type: cell-based; conditions: cell proliferation inhibition, 72 hours, luminescence
# Description: as §1, §2
# Pharmacokinetics in rats = assay type: in vivo, rat; conditions: male SD rats, 5 mg/kg orally by gavage, plasma
# Description: Male SD rats (200-300 g) were used for rat PK studies. Compounds were prepared and prepared immediately before use. Rats were administered intravenously or orally by gavage. Blood was collected from the rats through the orbital venous plexus, and 100 μL whole blood was collected into K2-EDTA tubes at each time point.
# 1 mg/kg was given intravenously, and whole blood was collected at 0.083, 0,25, $0.5, 1, 2, 4, 7, 24, 48, and 72 h after administration; 5 mg/kg were given orally by gavage, and whole blood was collected at 0.25, 0.5, 1, 2, 4, 7, 24, 48, and 72 h after administration in different batches, or the rats were killed at 4 and 24 h to obtain brains. The brain tissue samples were homogenized by adding 4 times the volume of buffer, and the whole blood and brain tissue samples were stored in a −80° C. refrigerator for later use. After the above whole blood and brain tissue samples were precipitated with acetonitrile for protein, the supernatant was taken and mixed with water in a ratio of 1:2, and 10 μL was taken for LC-MS/MS detection.
# Ba/F3 (EGFR Del19/C797S) = Ba/F3 (EGFR Del19/C797S) (Homo sapiens, UniProt P00533, C797S, cells depend on it, form not given); experiment: Cell proliferation inhibitory activity assay, Ba/F3 EGFR Del19/C797S; assay type: cell-based; conditions: cell proliferation inhibition, 72 hours, luminescence; read-out: Ba/F3 cells overexpressing different EGFR mutations IC50 (nM) Del19/C797S
# Description: as §1, §2
# [4] = Metabolic stability of liver microsomes, mouse; assay type: in vitro ADME; conditions: NADPH, 0-45 min; for microsomal CLint: read-out: CLint(μL/min/mg protein) Mouse
# Description: (§3) The liver microsomes of human, rat, mouse and dog were used to study the metabolic stability of the compounds. The specific experimental steps are as follows: • (1) Add 40 μL MgCl2 and 306 μL PBS to each well of a 96-well plate, and then add 4 μL compound, with a final DMSO concentration of ≤0.5%. Set up a blank well without compound; • (2) Add 10 μL of 20 mg/mL liver microsomes to each well, incubate at 37° C. for 10 min; • (3) Add 40 μL NADPH working solution to each well to start the reaction, and set up a control well without NADPH; • (4) At 0, 5, 15, and 45 min after the start of the reaction, 50 μL of sample was taken out, the termination solution was added, and the mixture was shaken for 5 min. • (5) The samples were then centrifuged at 3,220 g for 10 min, and 50 μL of the supernatant was removed and was added 200 μL water for dilution and analysis by LC-MS/MS.
# (§4) The in vitro intrinsic clearance (in vitro CLint, in μL/min/mg) was calculated from the in vitro half-life t1/2 (minutes) using the following equation (mean of replicates):
# (§5) In vitro clearance rate=0.693/in vitro half-life t1/2×[incubation volume (μL)/(protein amount (mg)]
# [5] = Metabolic stability of liver microsomes, rat; assay type: in vitro ADME; conditions: NADPH, 0-45 min; for microsomal CLint: read-out: CLint(μL/min/mg protein) Rat
# Description: as §3, §4, §5
# [6] = Metabolic stability of liver microsomes, human; assay type: in vitro ADME; conditions: NADPH, 0-45 min; for microsomal CLint: read-out: CLint(μL/min/mg protein) Human
# Description: as §3, §4, §5
Compound,GI50 [1],GI50 [2],GI50 (Ba/F3 (EGFR L858R/C797S)),"IC50 ([3]; Homo sapiens, A-431)","AUC(0-t) (Pharmacokinetics in rats; rat, po)","half-life (Pharmacokinetics in rats; rat, po)","Cmax (Pharmacokinetics in rats; rat, po, read-out: Cmax)",GI50 (Ba/F3 (EGFR Del19/C797S)),also measured
"Cc1cc2cc(n1)-c1cnccc1OCCCCCn1c(nc3ccc(N4CCC5(CC4)CCN(C4COC4)CC5)cc31)NC2=O [Example 52, 2^6-methyl-5^6-(9-(oxetan-3-yl)-3,9-diazaspiro [5.5]undecan-3-yl)-5^1H-11-oxa-4-aza-5(2,1)-benzo[d] imidazola-1(3,4),2(2,4)-dipyridinacyclo-undecaphan-3-one]",0.8 nM,1.6 nM,4.7 nM,700 nM,917 ng·h/mL,12.4 h,57.5 ng/mL,0.5 nM,"AUC(0-t) (Pharmacokinetics in mice; mouse, po): 3460 ng·h/mL; half-life (Pharmacokinetics in mice; mouse, po): 20.1 h; Cmax (Pharmacokinetics in mice; mouse, po, read-out: Cmax): 215 ng/mL"
"5^6-(9-((2R,6S)-2,6- dimethyl- tetrahydro-2H- pyran-4-yl)-3,9- diazaspiro[5.5] undecan-3-yl)- 2^6-methyl-5^1H- 11-oxa-4-aza- 5(2,1)-benzo [d]imidazola- 1(3,4),2(2,4)- dipyridinacyclo- undecaphan- 3-one [Example 91]",1.7 nM,3.4 nM,5.2 nM,,,,,0.64 nM,AUClast (Pharmacokinetics in mice): 1495 ng·h/mL; Cmax (Pharmacokinetics in mice): 41.9 ng/mL; IC50 [3]: 759 nM; AUClast (Pharmacokinetics in rats): 1611 ng·h/mL; Cmax (Pharmacokinetics in rats): 42.5 ng/mL; T1/2 (Pharmacokinetics in rats): 26.4 h
"Cc1cc2cc(n1)-c1cnccc1OCCCCCn1c(nc3cc(C)c(N4CCC5(CCN(CCF)CC5)CC4)cc31)NC2=O [Example 59, 5^6-(9-(2-fluoroethyl)-3,9-diazaspiro[5.5]undecan-3-yl)-2^6,5^5-dimethyl-5^1H-11-oxa-4-aza-5(2,1)-benzo [d]imidazola-1(3,4),2(2,4)-dipyridinacyclo-undecaphan-3-one]",2.4 nM,3.7 nM,5.7 nM,,,,,0.45 nM,microsomal CLint [4]: 8.93 µL/min/mg; microsomal CLint [5]: 23.3 µL/min/mg; microsomal CLint [6]: 4.82 µL/min/mg
"Cc1cc2cc(n1)-c1cnn(C)c1OCCC[C@@H](C)CN1/C(=N/C2=O)Nc2ccc(CN3CCN(C)CC3)cc21 [compound 1, reference compound]",,,,,96 ng·h/mL,2.94 h,10.5 ng/mL,,"AUC(0-t) (Pharmacokinetics in mice; mouse, po): 361 ng·h/mL; half-life (Pharmacokinetics in mice; mouse, po): 4.22 h; Cmax (Pharmacokinetics in mice; mouse, po, read-out: Cmax): 32.8 ng/mL"
"CO[C@@H]1CCC(N2CCC3(CCN(c4ccc5nc6n(c5c4)CCCCCOc4ccncc4-c4cc(cc(C)n4)C(=O)N6)CC3)CC2)C[C@@H]1F (stereo partly drawn) [Example 15, 5^6-(9-((3S,4R)-3-fluoro-4-methoxypiperidin-1-yl)-3-azaspiro[5.5]undecan-3-yl)-2^6-methyl-5^1H-11-oxa-4-aza-5(2,1)-benzo[d]imidazola-1(3,4),2(2,4) -dipyridinacycloundecaphan-3-one]",,,,,3390 ng·h/mL,,104 ng/mL,,
"Cc1cc2cc(n1)-c1cnn(C)c1OCCC[C@@H](C)CN1/C(=N/C2=O)Nc2ccc(CN3CCC4(CC3)COC4)cc21 [compound 2, reference compound]",,,,,132 ng·h/mL,,27.3 ng/mL,,
"5^6-(9-(3- methoxy- propyl)-3,9- diazaspiro[5.5] undecan-3-yl)- 2^6-methyl-5^1H- 11-oxa-4-aza- 5(2,1)-benzo[d] imidazola- 1(34),2(2,4)- dipyridinacyclo- undecaphan- 3-one [Example 76]",0.14 nM,0.2 nM,0.34 nM,,,,,0.09 nM,CLint(μL/min/mg protein) Mouse [4]: 23 μL/min/mg protein; CLint(μL/min/mg protein) Rat [5]: 15.6 μL/min/mg protein; CLint(μL/min/mg protein) Human [6]: 8 μL/min/mg protein; IC50 [3]: 586 nM
"Cc1cc2cc(n1)-c1cnc(F)cc1OCCC[C@@H](C)Cn1c(nc3ccc(N4CCC5(CC4)CCN(C4COC4)CC5)cc31)NC2=O [Example 81, (R)-1^6-fluoro-2^6,7-dimethyl-5^6-(9-(oxetan-3-yl)-3,9-diazaspiro [5.5]undecan-3-yl)-5^1H-11-oxa-4-aza-5(2,1)-benzo[d] imidazola-1(3,4),2(2,4)-dipyridinacyclo-undecaphan-3-one]",1.4 nM,4.3 nM,5.3 nM,1750 nM,1840 ng·h/mL,18.8 h,116 ng/mL,0.1 nM,
"Cc1cc2cc(n1)-c1cnccc1OCCCCCn1c(nc3cc(F)c(N4CCC5(CCN(CC6COC6)CC5)CC4)cc31)NC2=O [Example 62, 5^5-fluoro-2^6-methyl-5^6-(9-(oxetan-3-ylmethyl)-3,9-diazaspiro [5.5]undecan-3-yl)-5^1H-11-oxa-4-aza-5(2,1)-benzo[d] imidazola-1(3,4),2(2,4)-dipyridinacyclo-undecaphan-3-one]",0.95 nM,3 nM,3.8 nM,772 nM,,,,0.57 nM,
"COCCCN1CCC2(CC1)CCN(c1ccc3nc4n(c3c1)C[C@H](C)CCCOc1ccncc1-c1cc(cc(C)n1)C(=O)N4)CC2 [Example 77, (R)-5^6-(9-(3-methoxypropyl)-3,9-diazaspiro [5.5]undecan-3-yl)-2^6,7-dimethyl-5^1H-11-oxa-4-aza-5(2,1)-benzo [d]imidazola-1(3,4),2(2,4)-dipyridinacyclo-undecaphan-3-one]",0.36 nM,0.36 nM,0.18 nM,426 nM,,,,0.23 nM,microsomal CLint [4]: 25.1 µL/min/mg; microsomal CLint [5]: 6.7 µL/min/mg; microsomal CLint [6]: 17 µL/min/mg
